Patent US10988485B2 (Amgen Inc., priority 2018, dated 2021)
Like-named read-outs stand apart in the source and are kept apart here.

Assays:
[1] = target: GDP-bound KRAS protein (aa 1-169), containing both G12C and C118A amino acid substitutions (Homo sapiens, UniProt P01116, C118A/G12C); experiment: Coupled Nucleotide Exchange Assay (SOS-mediated nucleotide exchange, AlphaScreen); type: biochemical; conditions: compound pre-incubation either 5 min or 2 hours (not stated per compound); SOS and GTP added, cRAF AlphaScreen read-out
GDP-bound KRAS protein (aa 1-169), containing both G12C and C118A amino acid substitutions, sequence (P01116 1-169 isoform P01116-2 G12C/C118A): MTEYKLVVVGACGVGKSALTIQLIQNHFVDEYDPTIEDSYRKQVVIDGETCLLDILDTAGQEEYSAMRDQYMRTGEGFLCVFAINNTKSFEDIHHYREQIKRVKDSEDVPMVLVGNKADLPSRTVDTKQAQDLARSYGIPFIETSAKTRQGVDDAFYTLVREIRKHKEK
Description: (§1) For compounds in Table 6, the following assay conditions were employed:
Coupled Nucleotide Exchange Assay: Purified GDP-bound KRAS protein (aa 1-169), containing both G12C and C118A amino acid substitutions and an N-terminal His-tag, was pre-incubated in assay buffer (25 mM HEPES pH 7.4, 10 mM MgCl2, and 0.01% Triton X-100) with a compound dose-response titration for either 5 min or 2 hours (see Table 15). Following compound pre-incubation, purified SOS protein (aa 564-1049) and GTP (Roche 10106399001) were added to the assay wells and incubated for an additional 30 min (for 5 min compound pre-incubation) or 1 hour (for 2 hour compound pre-incubation). To determine the extent of inhibition of SOS-mediated nucleotide exchange, purified GST-tagged cRAF (aa 1-149), nickel chelate AlphaLISA acceptor beads (PerkinElmer AL108R), and AlphaScreen glutathione donor beads (PerkinElmer 6765302) were added to the assay wells and incubated for 10 minutes. The assay plates were then read on a PerkinElmer EnVision Multilabel Reader, using AlphaScreen® technology, and data were analyzed using a 4-parameter logistic model to calculate IC50 values.

[2] = system: Phosphorylation of ERK1/2 in MIA PaCa-2 cells; experiment: Phospho-ERK1/2 MSD Assay; type: cell-based; conditions: compound 2 or 4 hours, then 10 ng/mL EGF for 10 min, read-out: p-ERK IC50 (MIA-PaCa-2) (converted)
Description: as §1
Phospho-ERK1/2 MSD Assay: MIA PaCa-2 (ATCC® CRL-1420™) cells were cultured in RPMI 1640 Medium (ThermoFisher Scientific 11875093) containing 10% fetal bovine serum (ThermoFisher Scientific 16000044) and 1× penicillin-streptomycin-glutamine (ThermoFisher Scientific 10378016). Sixteen hours prior to compound treatment, MIA PaCa-2 cells were seeded in 96-well cell culture plates at a density of 25,000 cells/well and incubated at 37° C., 5% CO2. A compound dose-response titration was diluted in growth media, added to appropriate wells of a cell culture plate, and then incubated at 37° C., 5% CO2 for 2 or 4 hours. Following compound treatment, cells were stimulated with 10 ng/mL EGF (Roche 11376454001) for 10 min, washed with ice-cold Dulbecco's phosphate-buffered saline, no Ca^2+ or Mg^2+ (ThermoFisher Scientific 14190144), and then lysed in RIPA buffer (50 mM Tris-HCl pH 7.5, 1% Igepal, 0.5% sodium deoxycholate, 150 mM NaCl, and 0.5% sodium dodecyl sulfate) containing protease inhibitors (Roche 4693132001) and phosphatase inhibitors (Roche 4906837001). Phosphorylation of ERK1/2 in compound-treated lysates was assayed using Phospho-ERK1/2 Whole Cell Lysate kits (Meso Scale Discovery K151DWD) according to the manufacturer's protocol. Assay plates were read on a Meso Scale Discovery Sector imager 6000, and data were analyzed using a 4-parameter logistic model to calculate IC50 values.

[3] = Homo sapiens, MIA PaCa-2, MIA PaCa-2 cells

C=CC(=O)N1C[C@H](C)N(C2=NS(=O)(=O)N(c3c(C)cc(CN(C)C)cc3C(C)C)c3nc(-c4c(N)cccc4F)c(Cl)cc32)C[C@H]1C [Example 8, 1-((2R,5S)-4-(7-(2Amino-6-fluorophenyl)-6-chloro-1-(4-((dimethylamino)methyl)-2-methyl-6-(2-propanyl)phenyl)-2,2-dioxido-1H-pyrido[2,3-c][1,2,6]thiadiazin-4-yl)-2,5-dimethyl-1-piperazinyl)-2-propen-1-one]
IC50 [1]: 0.19 µM
IC50 ([2]; MIA PaCa-2 cells): 270 nM

C=CC(=O)N1CCN(C2=NS(=O)(=O)N(c3c(C(C)C)ncnc3C(C)C)c3nc(-c4ccccc4F)c(Cl)cc32)[C@@H](C)C1 [Example 2-4, (S)-1-(4-(6-chloro-1-(4,6-diisopropylpyrimidin-5-yl)-7-(2-fluorophenyl)-2,2-dioxido-1H-pyrido[2,3-c][1,2,6]thiadiazin-4-yl)-3-methylpiperazin-1-yl)prop-2-en-1-one]
IC50 [1]: 0.29 µM
IC50 [2, 3]: 310 nM

C=CC(=O)N1CCN(C2=NS(=O)(=O)N(c3ccccc3C(C)C)c3nc(-c4c(N)cccc4F)c(Cl)cc32)[C@@H](C)C1 [Example 1-3, 1-((3S)-4-(7-(2-amino-6-fluorophenyl)-6-chloro-2,2-dioxido-1-(2-(2-propanyl)phenyl)-1H-pyrido[2,3-c][1,2,6]thiadiazin-4-yl)-3-methyl-1-piperazinyl)-2-propen-1-one]
IC50 [1]: 0.06 µM
IC50 [2, 3]: 70 nM

C=CC(=O)N1C[C@H](C)N(C2=NS(=O)(=O)N(c3c(C)cc(CN(C)C)cc3C(C)C)c3nc(-c4c(N)cccc4F)c(Cl)cc32)C[C@H]1C [Example 8-1, 1-((2R,5S)-4-(7-(2-amino-6-fluorophenyl)-6-chloro-1-(4-((dimethylamino)methyl)-2-methyl-6-(2-propanyl)phenyl)-2,2-dioxido-1H-pyrido[2,3-c][1,2,6]thiadiazin-4-yl)-2,5-dimethyl-1-piperazinyl)-2-propen-1-one]
IC50 [1]: 0.08 µM
IC50 ([2]; MIA PaCa-2 cells): 80 nM

C=CC(=O)N1CCN(C2=NS(=O)(=O)N(c3c(C)ccnc3C(C)C)c3nc(-c4ccccc4F)c(Cl)cc32)[C@@H](C)C1 (single isomer, unassigned) [Example 2-2-1]
IC50 [1]: 0.24 µM
IC50 ([2]; MIA PaCa-2 cells): 270 nM

C=CC(=O)N1C[C@H](C)N(C2=NS(=O)(=O)N(c3c(C)ccnc3C(C)C)c3nc(-c4ccccc4C)c(Cl)cc32)C[C@H]1C (single isomer, unassigned) [Example 1-12-1]
IC50 [1]: 0.22 µM
IC50 [2, 3]: 290 nM

C=CC(=O)N1C[C@H](C)N(C2=NS(=O)(=O)N(c3ccc(CN(C)C)cc3C3CC3)c3nc(-c4ccccc4F)c(Cl)cc32)C[C@H]1C [Example 6, 1-((2R,5S)-4-(6-Chloro-1-(2-cyclopropyl-4-((dimethylamino)methyl)phenyl)-7-(2-fluorophenyl)-2,2-dioxido-1H-pyrido[2,3-c][1,2,6]thiadiazin-4-yl)-2,5-dimethyl-1-piperazinyl)-2-propen-1-one]
IC50 [1]: 0.15 µM
IC50 [2, 3]: 150 nM

C=CC(=O)N1CCN(C2=NS(=O)(=O)N(c3ccccc3C(C)C)c3nc(-c4c(O)cccc4F)c(Cl)cc32)[C@@H](C)C1 [Example 1-2, 1-((3S)-4-(6-chloro-7-(2-fluoro-6-hydroxyphenyl)-2,2-dioxido-1-(2-(2-propanyl)phenyl)-1H-pyrido[2,3-c][1,2,6]thiadiazin-4-yl)-3-methyl-1-piperazinyl)-2-propen-1-one]
IC50 [1]: 0.15 µM
IC50 [2, 3]: 270 nM

C=CC(=O)N1C[C@H](C)N(C2=NS(=O)(=O)N(c3c(N)ncnc3C(C)C)c3nc(-c4ccccc4F)c(Cl)cc32)C[C@H]1C [Example 9]
IC50 [1]: 0.25 µM
IC50 ([2]; MIA PaCa-2 cells): 150 nM
